Test results as given in BindingDB's records for doi:10.3109/14756366.2012.757603 (Sakarya University, 2014).

Tests used:
Carbonic anhydrase 1 = Carbonic anhydrase 1 (Homo sapiens, UniProt P00915); assay: In Vitro Inhibition Assay
Method: (§1) For the inhibition studies of sulfonamide, different concentrations of these compounds were added to the enzyme. Activity percentage values of CA for different concentrations of each sulfonamide were determined by regression analysis usingMicrosoft Office 2000 Excel (New York, NY). CA enzyme activity without a sulfonamide solution was accepted to be 100%.

Carbonic anhydrase 2 = Carbonic anhydrase 2 (Homo sapiens, UniProt P00918); assay: In Vitro Inhibition Assay
Method: as §1

Carbonic anhydrase 1, sequence (P00915 whole entry): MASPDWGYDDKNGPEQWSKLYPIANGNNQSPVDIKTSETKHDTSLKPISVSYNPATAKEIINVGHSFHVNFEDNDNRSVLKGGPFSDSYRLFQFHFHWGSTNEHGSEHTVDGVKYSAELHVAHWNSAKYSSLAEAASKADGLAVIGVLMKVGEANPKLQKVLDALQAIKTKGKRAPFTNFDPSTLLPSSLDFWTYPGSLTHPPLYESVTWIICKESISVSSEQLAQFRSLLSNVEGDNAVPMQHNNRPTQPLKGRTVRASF

| Compound | IC50 (Carbonic anhydrase 1) [µM] | IC50 (Carbonic anhydrase 2) [µM] |
| --- | --- | --- |
| CN1C(=O)C(=CNc2ccc(S(N)(=O)=O)cc2)C(=O)N(C)C1=O [4-((1,3-Dimethyl-2,4,6-trioxo-tetrahydropyrimidin-5(6H)-ylidene)methylamino)benzene-sulfonamide (2e)] | 5.2 | 2.52 |
| NS(=O)(=O)c1ccc(NC=C2C(=O)c3ccccc3C2=O)cc1 [4-((1,3-Dioxo-1H-inden-2(3H)-ylidene)methylamino)benzene-sulfonamide (2g)] | 3.19 | 3.36 |
| CC1(C)OC(=O)C(=CNc2ccc(S(N)(=O)=O)cc2)C(=O)O1 [4-((2,2-Dimethyl-4,6-dioxo-1,3-dioxan-5-ylidene)methylamino)benzene-sulfonamide (2c)] | 6.56 | 18.6 |
| NS(=O)(=O)c1ccc(NC=C2C(=O)NC(=O)NC2=O)cc1 [4-((2,4,6-Trioxo-tetrahydropyrimidin-5(6H)-ylidene)methylamino)benzene-sulfonamide (2f)] | 10.9 | 9.92 |
| NS(=O)(=O)c1ccc(NC=C2C(=O)CCC2=O)cc1 [4-((2,5-Dioxocyclopentylidene)methylamino)benzenesulfonamide (2h)] | 4.8 | 3.36 |
| NS(=O)(=O)c1ccc(NC=C2C(=O)CCCC2=O)cc1 [4-((2,6-Dioxocyclohexylidene)methylamino)benzenesulfonamide (2a)] | 4.25 | 4.93 |
| CC1(C)CC(=O)C(=CNc2ccc(S(N)(=O)=O)cc2)C(=O)C1 [4-((4,4-Dimethyl-2,6-dioxocyclohexylidene)methylamino)benzene-sulfonamide (2b)] | 2.12 | 6.41 |
| NS(=O)(=O)c1ccc(NC=C2C(=O)CC(c3ccco3)CC2=O)cc1 (stereo unspecified) [4-((4-(Furan-2-yl)-2,6-dioxocyclohexylidene)methylamino)benzenesulfonamide (2d)] | 8.61 | 7.21 |
